Data published in publication PMC4685510, “A Cell Biologist’s Field Guide to Aurora Kinase Inhibitors” (Frontiers in Oncology, 2015).
“And” between values parts separate entries of the source, which are not always exact repeats. Identical values can stand only once. Like-named read-outs stand apart in the source and are kept apart here.

Tests used:
Experiment in all cases: biochemical
Assay type in all cases: biochemical
[1] = target: 363 human kinases (including Aurora A/B/C) (Homo sapiens, UniProt Q9HAZ1); conditions: CLK4, [ATP] 100 µM; for remaining activity at 0.1 µM: 100 nM; for remaining activity at 0.1 µM / remaining activity at 0.5 µM: read-out: % Enzyme Activity (relative to DMSO controls)
Source text: (§1) However, the Aurora A/B selectivity ratios derived from our in vitro and in vivo data can be compared to prioritize inhibitors.

[2] = target: 363 human kinases (including Aurora A/B/C) (Homo sapiens, UniProt Q13557); conditions: CAMK2d, [ATP] 30 µM; for remaining activity at 0.1 µM: 100 nM; for remaining activity at 0.1 µM / remaining activity at 0.5 µM: read-out: % Enzyme Activity (relative to DMSO controls)
Source text: as §1

[3] = target: 363 human kinases (including Aurora A/B/C) (Homo sapiens, UniProt P08581); conditions: c-MET, [ATP] 30 µM; for remaining activity at 0.1 µM: 100 nM; for remaining activity at 0.1 µM / remaining activity at 0.5 µM: read-out: % Enzyme Activity (relative to DMSO controls)
Source text: as §1

[4] = target: 363 human kinases (including Aurora A/B/C) (Homo sapiens, UniProt Q96RG2); conditions: PASK; for remaining activity at 0.1 µM: 100 nM; for remaining activity at 0.1 µM / remaining activity at 0.5 µM: read-out: % Enzyme Activity (relative to DMSO controls)
Source text: as §1

[5] = target: 363 human kinases (including Aurora A/B/C) (Homo sapiens, UniProt P35916); conditions: for remaining activity at 0.1 µM / remaining activity at 0.5 µM: read-out: % Enzyme Activity (relative to DMSO controls)
Source text: as §1

[6] = target: T1, 363 human kinases (including Aurora A/B/C) (Homo sapiens, UniProt P52564); conditions: MKK6; for remaining activity at 0.1 µM: 100 nM; for remaining activity at 0.1 µM / remaining activity at 0.5 µM: read-out: % Enzyme Activity (relative to DMSO controls)
T1 sequence (P52564 1-334): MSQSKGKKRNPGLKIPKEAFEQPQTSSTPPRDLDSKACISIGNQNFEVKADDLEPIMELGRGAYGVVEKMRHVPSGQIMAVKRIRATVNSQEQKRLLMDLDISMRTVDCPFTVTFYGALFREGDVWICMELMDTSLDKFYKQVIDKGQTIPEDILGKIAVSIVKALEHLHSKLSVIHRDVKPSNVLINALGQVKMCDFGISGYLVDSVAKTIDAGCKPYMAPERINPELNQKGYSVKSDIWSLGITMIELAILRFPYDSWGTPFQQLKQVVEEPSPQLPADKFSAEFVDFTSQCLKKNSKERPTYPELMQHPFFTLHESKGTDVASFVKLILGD
Source text: as §1

[7] = target: 363 human kinases (including Aurora A/B/C) (Homo sapiens, UniProt P50750); conditions: [ATP] 10 µM; for remaining activity at 0.1 µM: 100 nM; for remaining activity at 0.1 µM / remaining activity at 0.5 µM: read-out: % Enzyme Activity (relative to DMSO controls); for remaining activity at 0.5 µM / % Enzyme Activity (relative to DMSO controls): 500 nM
Source text: as §1

[8] = target: 363 human kinases (including Aurora A/B/C) (Homo sapiens, UniProt Q13153); conditions: PAK1; for remaining activity at 0.1 µM: 100 nM; for remaining activity at 0.1 µM / remaining activity at 0.5 µM: read-out: % Enzyme Activity (relative to DMSO controls)
Source text: as §1

[9] = target: T2, 363 human kinases (including Aurora A/B/C) (Homo sapiens, UniProt Q6PHR2); conditions: ULK3; for remaining activity at 0.1 µM: 100 nM; for remaining activity at 0.1 µM / remaining activity at 0.5 µM: read-out: % Enzyme Activity (relative to DMSO controls)
T2 sequence (Q6PHR2 1-472): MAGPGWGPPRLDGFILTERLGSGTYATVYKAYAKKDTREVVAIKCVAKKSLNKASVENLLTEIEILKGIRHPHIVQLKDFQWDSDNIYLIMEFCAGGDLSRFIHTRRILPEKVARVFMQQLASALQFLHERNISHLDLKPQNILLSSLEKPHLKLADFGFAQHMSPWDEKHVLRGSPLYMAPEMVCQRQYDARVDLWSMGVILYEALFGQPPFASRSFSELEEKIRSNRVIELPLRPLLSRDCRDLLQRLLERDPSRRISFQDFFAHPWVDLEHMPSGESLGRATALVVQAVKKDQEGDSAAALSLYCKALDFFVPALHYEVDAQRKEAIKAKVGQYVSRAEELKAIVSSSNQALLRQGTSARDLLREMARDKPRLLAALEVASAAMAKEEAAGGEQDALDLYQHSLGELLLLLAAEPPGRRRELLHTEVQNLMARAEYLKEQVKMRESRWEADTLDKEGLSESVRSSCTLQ
Source text: as §1

[10] = target: T3, 363 human kinases (including Aurora A/B/C) (Homo sapiens, UniProt Q9UEE5); conditions: DRAK1/STK17A, [ATP] 30 µM; for remaining activity at 0.1 µM: 100 nM; for remaining activity at 0.1 µM / remaining activity at 0.5 µM: read-out: % Enzyme Activity (relative to DMSO controls)
T3 sequence (Q9UEE5 1-414): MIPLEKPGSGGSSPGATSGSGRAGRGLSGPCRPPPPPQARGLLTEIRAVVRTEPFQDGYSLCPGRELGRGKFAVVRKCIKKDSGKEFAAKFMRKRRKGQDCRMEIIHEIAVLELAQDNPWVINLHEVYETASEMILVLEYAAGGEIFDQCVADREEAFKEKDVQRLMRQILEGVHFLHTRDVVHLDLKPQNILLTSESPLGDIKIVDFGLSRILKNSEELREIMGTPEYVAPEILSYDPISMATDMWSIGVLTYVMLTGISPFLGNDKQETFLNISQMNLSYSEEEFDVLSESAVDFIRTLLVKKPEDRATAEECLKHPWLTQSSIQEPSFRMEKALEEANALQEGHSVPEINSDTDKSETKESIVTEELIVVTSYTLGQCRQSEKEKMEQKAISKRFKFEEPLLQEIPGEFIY
Source text: as §1

[11] = target: 363 human kinases (including Aurora A/B/C) (Homo sapiens, UniProt P28482); conditions: ERK2/MAPK1, [ATP] 50 µM; for remaining activity at 0.1 µM: 100 nM; for remaining activity at 0.1 µM / remaining activity at 0.5 µM: read-out: % Enzyme Activity (relative to DMSO controls)
Source text: as §1

[12] = target: 363 human kinases (including Aurora A/B/C) (Homo sapiens, UniProt P53671); conditions: LIMK2; for remaining activity at 0.1 µM: 100 nM; for remaining activity at 0.1 µM / remaining activity at 0.5 µM: read-out: % Enzyme Activity (relative to DMSO controls)
Source text: as §1

[13] = FLT4/VEGFR3, [ATP] 5 µM, 500 nM

Chain of 363 human kinases (including Aurora A/B/C) (Homo sapiens, UniProt P28482) (P28482 whole entry): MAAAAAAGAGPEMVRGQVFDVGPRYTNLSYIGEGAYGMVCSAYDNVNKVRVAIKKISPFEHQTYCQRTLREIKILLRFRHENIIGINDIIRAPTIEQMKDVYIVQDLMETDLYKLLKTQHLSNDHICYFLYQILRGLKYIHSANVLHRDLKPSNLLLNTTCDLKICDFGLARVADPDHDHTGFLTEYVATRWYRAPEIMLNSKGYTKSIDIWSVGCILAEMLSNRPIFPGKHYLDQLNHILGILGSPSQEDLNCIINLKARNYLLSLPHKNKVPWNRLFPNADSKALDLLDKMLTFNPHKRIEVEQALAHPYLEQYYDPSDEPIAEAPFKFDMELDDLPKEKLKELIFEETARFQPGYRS
Chain of 363 human kinases (including Aurora A/B/C) (Homo sapiens, UniProt P08581) (P08581 25-1390): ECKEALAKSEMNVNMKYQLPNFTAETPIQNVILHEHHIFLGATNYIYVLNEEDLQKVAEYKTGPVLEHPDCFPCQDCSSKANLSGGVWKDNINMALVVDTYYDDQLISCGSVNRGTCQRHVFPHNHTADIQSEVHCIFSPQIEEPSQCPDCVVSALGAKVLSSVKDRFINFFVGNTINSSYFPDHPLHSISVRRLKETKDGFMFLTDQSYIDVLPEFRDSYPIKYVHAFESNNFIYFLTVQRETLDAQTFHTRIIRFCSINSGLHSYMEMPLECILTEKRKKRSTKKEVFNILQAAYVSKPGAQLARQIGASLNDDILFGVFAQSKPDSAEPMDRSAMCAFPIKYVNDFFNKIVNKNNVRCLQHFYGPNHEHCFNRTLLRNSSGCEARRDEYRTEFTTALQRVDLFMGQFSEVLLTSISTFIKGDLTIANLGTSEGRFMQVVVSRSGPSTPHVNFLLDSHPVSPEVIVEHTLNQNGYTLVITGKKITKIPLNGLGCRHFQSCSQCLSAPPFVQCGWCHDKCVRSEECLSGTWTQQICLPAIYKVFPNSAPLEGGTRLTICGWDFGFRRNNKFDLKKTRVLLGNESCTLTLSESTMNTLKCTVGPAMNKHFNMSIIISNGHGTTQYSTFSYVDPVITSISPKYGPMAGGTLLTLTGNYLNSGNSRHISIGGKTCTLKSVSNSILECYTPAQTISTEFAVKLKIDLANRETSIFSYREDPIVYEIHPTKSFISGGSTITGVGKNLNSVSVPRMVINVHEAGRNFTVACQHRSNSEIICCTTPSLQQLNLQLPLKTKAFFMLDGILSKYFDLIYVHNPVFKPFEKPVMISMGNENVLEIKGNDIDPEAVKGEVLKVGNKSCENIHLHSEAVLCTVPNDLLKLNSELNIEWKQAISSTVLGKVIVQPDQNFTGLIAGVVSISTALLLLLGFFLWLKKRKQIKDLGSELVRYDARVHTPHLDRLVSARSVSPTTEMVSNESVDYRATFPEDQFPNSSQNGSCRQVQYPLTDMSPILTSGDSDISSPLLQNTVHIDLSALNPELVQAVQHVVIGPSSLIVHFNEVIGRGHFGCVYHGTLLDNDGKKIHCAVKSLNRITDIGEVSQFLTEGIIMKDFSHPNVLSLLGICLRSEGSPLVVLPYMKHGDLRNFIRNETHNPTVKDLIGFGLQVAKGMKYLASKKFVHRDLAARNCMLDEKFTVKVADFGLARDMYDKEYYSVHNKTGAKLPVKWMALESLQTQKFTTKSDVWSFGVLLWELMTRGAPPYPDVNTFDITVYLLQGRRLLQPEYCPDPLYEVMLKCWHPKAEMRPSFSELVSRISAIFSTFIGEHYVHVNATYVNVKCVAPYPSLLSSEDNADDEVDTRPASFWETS
Chain of 363 human kinases (including Aurora A/B/C) (Homo sapiens, UniProt P50750) (P50750 whole entry): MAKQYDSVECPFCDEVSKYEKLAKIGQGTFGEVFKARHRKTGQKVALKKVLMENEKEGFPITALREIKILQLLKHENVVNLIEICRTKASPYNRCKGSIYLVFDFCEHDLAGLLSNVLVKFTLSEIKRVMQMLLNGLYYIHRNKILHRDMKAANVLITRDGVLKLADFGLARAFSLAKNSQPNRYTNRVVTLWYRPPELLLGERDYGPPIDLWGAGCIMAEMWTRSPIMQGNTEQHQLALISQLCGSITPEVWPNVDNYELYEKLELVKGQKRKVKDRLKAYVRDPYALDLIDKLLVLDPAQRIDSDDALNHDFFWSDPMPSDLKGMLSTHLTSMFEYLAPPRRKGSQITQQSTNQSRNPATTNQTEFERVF
Chain of 363 human kinases (including Aurora A/B/C) (Homo sapiens, UniProt P35916) (P35916 25-1363): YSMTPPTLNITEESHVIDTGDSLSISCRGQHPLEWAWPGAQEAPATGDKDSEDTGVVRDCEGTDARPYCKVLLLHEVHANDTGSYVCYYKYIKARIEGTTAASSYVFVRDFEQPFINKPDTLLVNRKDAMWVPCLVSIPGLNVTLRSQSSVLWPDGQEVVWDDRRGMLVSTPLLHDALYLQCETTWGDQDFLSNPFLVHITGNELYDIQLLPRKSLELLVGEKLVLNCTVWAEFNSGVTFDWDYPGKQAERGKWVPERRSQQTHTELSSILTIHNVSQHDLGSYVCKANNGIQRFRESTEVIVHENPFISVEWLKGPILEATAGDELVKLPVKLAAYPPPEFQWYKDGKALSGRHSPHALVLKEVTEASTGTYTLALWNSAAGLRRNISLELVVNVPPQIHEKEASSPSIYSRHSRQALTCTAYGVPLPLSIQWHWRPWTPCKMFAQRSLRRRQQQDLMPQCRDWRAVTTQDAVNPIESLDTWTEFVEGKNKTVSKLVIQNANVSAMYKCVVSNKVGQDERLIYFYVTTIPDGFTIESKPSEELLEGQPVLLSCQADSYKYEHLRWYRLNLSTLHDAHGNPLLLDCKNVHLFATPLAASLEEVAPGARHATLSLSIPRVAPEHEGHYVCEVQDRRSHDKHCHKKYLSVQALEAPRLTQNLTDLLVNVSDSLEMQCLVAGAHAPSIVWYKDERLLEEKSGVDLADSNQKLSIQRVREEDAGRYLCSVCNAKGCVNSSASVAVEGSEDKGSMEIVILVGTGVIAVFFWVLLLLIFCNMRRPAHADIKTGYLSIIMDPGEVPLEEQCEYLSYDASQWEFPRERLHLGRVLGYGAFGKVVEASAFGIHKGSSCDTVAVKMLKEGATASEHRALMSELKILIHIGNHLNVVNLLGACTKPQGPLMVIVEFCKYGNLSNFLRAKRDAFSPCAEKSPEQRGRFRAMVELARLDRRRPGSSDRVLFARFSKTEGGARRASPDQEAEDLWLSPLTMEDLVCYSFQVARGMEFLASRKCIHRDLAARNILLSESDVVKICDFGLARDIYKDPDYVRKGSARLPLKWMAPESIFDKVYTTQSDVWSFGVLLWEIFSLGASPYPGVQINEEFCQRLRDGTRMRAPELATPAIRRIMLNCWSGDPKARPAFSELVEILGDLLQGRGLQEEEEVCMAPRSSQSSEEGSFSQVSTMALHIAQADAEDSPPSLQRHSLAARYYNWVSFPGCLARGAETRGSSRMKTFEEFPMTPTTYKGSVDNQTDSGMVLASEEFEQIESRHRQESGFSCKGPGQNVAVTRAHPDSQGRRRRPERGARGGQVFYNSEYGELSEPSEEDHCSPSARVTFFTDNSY
Chain of 363 human kinases (including Aurora A/B/C) (Homo sapiens, UniProt Q9HAZ1) (Q9HAZ1 whole entry): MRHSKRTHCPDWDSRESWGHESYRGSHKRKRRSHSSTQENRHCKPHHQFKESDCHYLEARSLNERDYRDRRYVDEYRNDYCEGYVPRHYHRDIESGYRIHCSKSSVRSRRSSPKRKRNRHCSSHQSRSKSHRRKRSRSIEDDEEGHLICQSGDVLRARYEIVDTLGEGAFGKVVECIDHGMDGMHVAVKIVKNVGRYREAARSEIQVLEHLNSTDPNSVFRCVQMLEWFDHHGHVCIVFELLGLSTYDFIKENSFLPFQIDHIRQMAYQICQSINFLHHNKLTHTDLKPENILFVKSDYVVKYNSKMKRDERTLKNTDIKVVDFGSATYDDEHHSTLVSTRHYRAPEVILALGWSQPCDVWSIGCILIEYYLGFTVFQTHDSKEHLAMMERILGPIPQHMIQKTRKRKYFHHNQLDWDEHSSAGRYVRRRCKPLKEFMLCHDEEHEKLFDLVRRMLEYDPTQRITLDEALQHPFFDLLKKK
Chain of 363 human kinases (including Aurora A/B/C) (Homo sapiens, UniProt Q13153) (Q13153 whole entry): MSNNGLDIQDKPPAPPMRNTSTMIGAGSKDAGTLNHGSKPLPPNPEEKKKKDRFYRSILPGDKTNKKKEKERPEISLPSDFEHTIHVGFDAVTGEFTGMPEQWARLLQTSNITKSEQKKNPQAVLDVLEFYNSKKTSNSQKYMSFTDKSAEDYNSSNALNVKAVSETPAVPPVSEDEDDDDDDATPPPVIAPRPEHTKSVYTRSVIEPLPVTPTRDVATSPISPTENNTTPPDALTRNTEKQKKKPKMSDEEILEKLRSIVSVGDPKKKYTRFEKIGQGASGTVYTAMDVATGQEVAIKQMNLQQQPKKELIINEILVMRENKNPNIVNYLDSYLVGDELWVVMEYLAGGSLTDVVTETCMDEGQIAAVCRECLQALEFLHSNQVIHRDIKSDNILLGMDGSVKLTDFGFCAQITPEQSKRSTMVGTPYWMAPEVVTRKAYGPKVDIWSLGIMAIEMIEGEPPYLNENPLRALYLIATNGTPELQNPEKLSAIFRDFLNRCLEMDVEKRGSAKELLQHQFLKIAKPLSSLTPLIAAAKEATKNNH
Chain of 363 human kinases (including Aurora A/B/C) (Homo sapiens, UniProt Q13557) (Q13557 whole entry): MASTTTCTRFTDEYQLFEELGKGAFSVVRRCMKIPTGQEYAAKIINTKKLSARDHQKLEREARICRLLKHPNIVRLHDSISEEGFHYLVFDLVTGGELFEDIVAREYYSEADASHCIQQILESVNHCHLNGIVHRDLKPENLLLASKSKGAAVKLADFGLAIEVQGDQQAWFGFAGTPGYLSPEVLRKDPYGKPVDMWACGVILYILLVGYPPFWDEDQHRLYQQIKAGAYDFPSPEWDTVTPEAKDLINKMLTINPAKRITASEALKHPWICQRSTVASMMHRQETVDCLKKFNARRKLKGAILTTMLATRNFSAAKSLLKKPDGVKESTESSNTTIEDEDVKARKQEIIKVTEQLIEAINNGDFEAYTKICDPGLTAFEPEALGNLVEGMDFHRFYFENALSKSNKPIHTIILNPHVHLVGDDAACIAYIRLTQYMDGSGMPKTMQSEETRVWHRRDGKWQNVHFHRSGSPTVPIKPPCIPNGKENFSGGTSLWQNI

| SMILES | remaining activity at 0.1 µM [1] [%] | remaining activity at 0.1 µM [2] [%] | remaining activity at 0.1 µM [3] [%] | remaining activity at 0.1 µM [4] [%] | remaining activity at 0.1 µM [6] [%] | remaining activity at 0.1 µM ([7]; CDK9/cyclin K) [%] | remaining activity at 0.1 µM ([7]; CDK9/cyclin T1) [%] | remaining activity at 0.1 µM [8] [%] | remaining activity at 0.1 µM [9] [%] | remaining activity at 0.1 µM [10] [%] | remaining activity at 0.1 µM [11] [%] | remaining activity at 0.1 µM [12] [%] | remaining activity at 0.5 µM ([1]; 500 nM) [%] | remaining activity at 0.5 µM ([2]; 500 nM) [%] | remaining activity at 0.5 µM ([3]; 500 nM) [%] | remaining activity at 0.5 µM ([4]; 500 nM) [%] | remaining activity at 0.5 µM [5, 13] [%] | remaining activity at 0.5 µM ([6]; 500 nM) [%] | remaining activity at 0.5 µM ([7]; CDK9/cyclin K) [%] | remaining activity at 0.5 µM ([7]; CDK9/cyclin T1) [%] | also measured |
| --- | --- | --- | --- | --- | --- | --- | --- | --- | --- | --- | --- | --- | --- | --- | --- | --- | --- | --- | --- | --- | --- |
| CCn1cc(-c2ccnc3[nH]c(-c4cccc(CN(C)C)c4)cc23)c(-c2ccc(NC(=O)N(C)C)cc2)n1 [GSK1070916] | 70.3 | 94.6 | 84.8 | 102 | 85.3 | 102 | 91.5 | 81.9 | 93.8 | 109 | 101 | 103 | – | – | – | – | – | – | – | – | remaining activity at 0.1 µM [5]: 60.2% and 59.9% |
| O=C(O)[C@]1(Cc2cccc(Nc3nccs3)n2)CC[C@@H](Oc2cccc(Cl)c2F)CC1 [MK-5108] | 34.9 | 101 | 74.5 | 100 | 95.4 | 94 | 124 | 93.7 | 89.6 | 105 | 98.4 | 92.8 | 6.67 | 98.6 | 50.3 | 104 | 6.3 | 76.7 | 106 | 115 | remaining activity at 0.1 µM ([5]; FLT4/VEGFR3, [ATP] 5 µM, 100 nM): 26.2%; remaining activity at 0.5 µM ([8]; 500 nM): 81.2%; remaining activity at 0.5 µM ([9]; 500 nM): 62.1%; remaining activity at 0.5 µM ([10]; 500 nM): 102%; remaining activity at 0.5 µM ([11]; 500 nM): 106%; remaining activity at 0.5 µM ([12]; 500 nM): 76.2% |
| O=C(c1cccc(Cl)c1F)N1CCN(Cc2cccc(Nc3nccs3)n2)CC1 [MK-8745] | – | – | – | – | – | – | – | – | – | – | – | – | 59.9 | 98.5 | 77.2 | 103 | 88.4 | 68 | 109 | 198 | % Enzyme Activity (relative to DMSO controls) ([1]; 500 nM): 57.02%; % Enzyme Activity (relative to DMSO controls) ([2]; 500 nM): 97.95%; % Enzyme Activity (relative to DMSO controls) ([3]; 500 nM): 76.29%; % Enzyme Activity (relative to DMSO controls) ([4]; 500 nM): 101.46%; % Enzyme Activity (relative to DMSO controls) [5, 13]: 87.71%; % Enzyme Activity (relative to DMSO controls) ([6]; 500 nM): 66.22%; % Enzyme Activity (relative to DMSO controls) ([7]; CDK9/cyclin K): 108.88%; % Enzyme Activity (relative to DMSO controls) ([7]; CDK9/cyclin T1): 190.89%; % Enzyme Activity (relative to DMSO controls) ([8]; 500 nM): 85.62%; remaining activity at 0.5 µM ([8]; 500 nM): 87.5%; % Enzyme Activity (relative to DMSO controls) ([9]; 500 nM): 93.40%; remaining activity at 0.5 µM ([9]; 500 nM): 94.4%; % Enzyme Activity (relative to DMSO controls) ([10]; 500 nM): 102.39%; remaining activity at 0.5 µM ([10]; 500 nM): 104%; % Enzyme Activity (relative to DMSO controls) ([11]; 500 nM): 103.36%; remaining activity at 0.5 µM ([11]; 500 nM): 104%; % Enzyme Activity (relative to DMSO controls) ([12]; 500 nM): 97.95%; remaining activity at 0.5 µM ([12]; 500 nM): 98.4% |
